Measured values from ChEMBL document CHEMBL1201862, “PubChem BioAssay data set” (2004).
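Protocol summary: plate cells (96-well), add compound at 5 concentrations, incubate 48 h, interpolate endpoints linearly. The concentration for 50% growth inhibition is given as GI50.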 Calls of active or inactive are those of the source. Rule as the data show it: active = GI50 up to about 1.1 µM and inactive = higher.

Legend:
Experiment in all cases: growth of human tumour cells (NCI), 48 h
[1] = tested on: SNB-75
[2] = tested on: HCT-15
[3] = tested on: SW-620
[4] = tested on: SK-MEL-2
[5] = tested on: SR
[6] = tested on: CCRF-CEM
[7] = tested on: UACC-62
[8] = tested on: NCI-H226
[9] = tested on: SK-MEL-5
[10] = tested on: NCI-H23
[11] = tested on: U-251
[12] = tested on: SN12C
[13] = tested on: Malme-3M
[14] = tested on: OVCAR-5
[15] = tested on: OVCAR-4
[16] = tested on: HL-60
[17] = tested on: RXF 393
[18] = tested on: HCC 2998

CCOC(=O)C/C(=N\c1cc(C)on1)N(CC)CC.[O-][Cl+3]([O-])([O-])O
GI50 [1]: > 100 µM (inactive) | GI50 [2]: > 100 µM | GI50 [3]: > 100 µM (inactive) | GI50 [4]: > 100 µM (inactive) | GI50 [5]: > 100 µM (inactive) | GI50 [6]: > 100 µM (inactive) | GI50 [7]: > 100 µM (inactive) | GI50 [8]: > 100 µM (inactive) | GI50 [9]: > 100 µM (inactive) | GI50 [10]: > 100 µM (inactive) | GI50 [11]: > 100 µM (inactive) | GI50 [12]: > 100 µM (inactive) | GI50 [13]: > 100 µM (inactive) | GI50 [14]: > 100 µM (inactive)

CCn1c(O)c(C(=O)Nc2cccs2)c(=O)n(CC)c1=S
GI50 [1]: 17.5 µM (inactive) | GI50 [2]: 14 µM | GI50 [15]: 15.3 µM (inactive) | GI50 [3]: 23.2 µM (inactive) | GI50 [4]: 17.3 µM (inactive) | GI50 [5]: 29.5 µM (inactive) | GI50 [6]: 26.7 µM (inactive) | GI50 [7]: 16 µM (inactive) | GI50 [16]: 19.8 µM (inactive) | GI50 [8]: 25.5 µM (inactive) | GI50 [9]: 18 µM (inactive) | GI50 [10]: 15.8 µM (inactive) | GI50 [11]: 11.4 µM (inactive) | GI50 [12]: 20 µM (inactive) | GI50 [13]: 19.9 µM (inactive) | GI50 [14]: 23.7 µM (inactive)

NC1=NC(=O)C(CC(=O)Nc2ccc([N+](=O)[O-])cc2[N+](=O)[O-])S1 (stereo not given)
GI50 [1]: 92.9 µM (inactive) | GI50 [15]: > 100 µM (inactive) | GI50 [3]: > 100 µM (inactive) | GI50 [4]: > 100 µM (inactive) | GI50 [6]: > 100 µM (inactive) | GI50 [7]: > 100 µM (inactive) | GI50 [16]: 83.2 µM (inactive) | GI50 [17]: > 100 µM (inactive) | GI50 [8]: > 100 µM (inactive) | GI50 [9]: > 100 µM (inactive) | GI50 [10]: > 100 µM (inactive) | GI50 [11]: > 100 µM (inactive) | GI50 [12]: > 100 µM (inactive) | GI50 [18]: > 100 µM (inactive) | GI50 [13]: > 100 µM (inactive) | GI50 [14]: > 100 µM (inactive)

COc1ccc2c(c1)[n+]([O-])c(C(N)=O)c(N)[n+]2[O-]
GI50 [1]: 65.6 µM (inactive) | GI50 [2]: 61 µM | GI50 [15]: > 100 µM (inactive) | GI50 [3]: 57.9 µM (inactive) | GI50 [4]: > 100 µM (inactive) | GI50 [5]: > 100 µM (inactive) | GI50 [16]: 40.8 µM (inactive) | GI50 [8]: > 100 µM (inactive) | GI50 [9]: 40.1 µM (inactive) | GI50 [10]: 28.8 µM (inactive) | GI50 [11]: 86.7 µM (inactive) | GI50 [12]: > 100 µM (inactive) | GI50 [13]: > 100 µM (inactive) | GI50 [14]: > 100 µM (inactive)

CC(=O)CC(=O)CCCC(=O)Nc1ccc(Cl)cc1C
GI50 [2]: > 100 µM | GI50 [15]: > 100 µM (inactive) | GI50 [3]: > 100 µM (inactive) | GI50 [4]: > 100 µM (inactive) | GI50 [6]: > 100 µM (inactive) | GI50 [7]: > 100 µM (inactive) | GI50 [16]: > 100 µM (inactive) | GI50 [8]: > 100 µM (inactive) | GI50 [9]: > 100 µM (inactive) | GI50 [10]: > 100 µM (inactive) | GI50 [11]: > 100 µM (inactive) | GI50 [12]: > 100 µM (inactive) | GI50 [18]: > 100 µM (inactive) | GI50 [13]: > 100 µM (inactive) | GI50 [14]: > 100 µM (inactive)

N#Cc1c(NN)nc(NN)c(C#N)c1-c1ccccc1
GI50 [1]: > 100 µM (inactive) | GI50 [2]: > 100 µM | GI50 [15]: > 100 µM (inactive) | GI50 [3]: > 100 µM (inactive) | GI50 [4]: > 100 µM (inactive) | GI50 [6]: > 100 µM (inactive) | GI50 [7]: > 100 µM (inactive) | GI50 [16]: > 100 µM (inactive) | GI50 [17]: 96.6 µM (inactive) | GI50 [8]: 52.8 µM (inactive) | GI50 [9]: > 100 µM (inactive) | GI50 [10]: > 100 µM (inactive) | GI50 [12]: > 100 µM (inactive) | GI50 [18]: > 100 µM (inactive) | GI50 [13]: > 100 µM (inactive) | GI50 [14]: > 100 µM (inactive)

O=C(CC1(O)C(=O)Nc2ccccc21)c1ccco1 (stereo not given)
GI50 [1]: 94.8 µM (inactive) | GI50 [2]: > 100 µM | GI50 [15]: > 100 µM (inactive) | GI50 [3]: > 100 µM (inactive) | GI50 [4]: > 100 µM (inactive) | GI50 [7]: > 100 µM (inactive) | GI50 [16]: > 100 µM (inactive) | GI50 [17]: > 100 µM (inactive) | GI50 [8]: > 100 µM (inactive) | GI50 [9]: > 100 µM (inactive) | GI50 [10]: > 100 µM (inactive) | GI50 [12]: > 100 µM (inactive) | GI50 [13]: > 100 µM (inactive) | GI50 [14]: > 100 µM (inactive)
